These results are taken from patent publication US11993599B2, “Therapeutic compounds” (Genentech, Inc., priority 2021, dated 2024).

One test deals with T1, BRG1 (Homo sapiens, UniProt P51532).
T1 construct: either BRM primary antibody (Cell signaling Cat #11966) or BRG primary antibody (Abcam, ab 110641); endogenous in cells; host or cells: SW1573
The test can be described thus: Immunofluorescence assay for BRG1 degradation in SW1573 cells. As to conditions: 20 hours incubation; for DC50: immunofluorescence mean nuclear signal, read-out: BRG1 IF Degradation IC50; for Dmax: SW1573, 20 h, normalized to a known degrader control, read-out: BRG1 IF Degradation Sinf (%). It is filed as cell-based. An outline of the steps:
(§1)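 After a 20 h incubation with test compound, SW1573 cells are fixed and stained for BRM or BRG1 plus Hoechst. Per-cell mean nuclear intensity, referenced to a degrader control, is fit concentration-dependently with unconstrained maximum for Dmax.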

The target in the next test is BRM (Homo sapiens, UniProt P51531). The test can be described thus: Immunofluorescence assay for BRM degradation in SW1573 cells. It is filed as cell-based. Further details: treated overnight at 4° C. with either BRM primary antibody (Cell signaling Cat #11966) or BRG primary antibody; endogenous in cells; host or cells: SW1573. As to conditions: 20 hours incubation; for DC50: immunofluorescence mean nuclear signal, read-out: BRM IF Degradation IC50; for BRM IF Degradation Sinf (%): normalized to a known degrader control. An outline of the steps: as §1
BRM, sequence (P51531 whole entry): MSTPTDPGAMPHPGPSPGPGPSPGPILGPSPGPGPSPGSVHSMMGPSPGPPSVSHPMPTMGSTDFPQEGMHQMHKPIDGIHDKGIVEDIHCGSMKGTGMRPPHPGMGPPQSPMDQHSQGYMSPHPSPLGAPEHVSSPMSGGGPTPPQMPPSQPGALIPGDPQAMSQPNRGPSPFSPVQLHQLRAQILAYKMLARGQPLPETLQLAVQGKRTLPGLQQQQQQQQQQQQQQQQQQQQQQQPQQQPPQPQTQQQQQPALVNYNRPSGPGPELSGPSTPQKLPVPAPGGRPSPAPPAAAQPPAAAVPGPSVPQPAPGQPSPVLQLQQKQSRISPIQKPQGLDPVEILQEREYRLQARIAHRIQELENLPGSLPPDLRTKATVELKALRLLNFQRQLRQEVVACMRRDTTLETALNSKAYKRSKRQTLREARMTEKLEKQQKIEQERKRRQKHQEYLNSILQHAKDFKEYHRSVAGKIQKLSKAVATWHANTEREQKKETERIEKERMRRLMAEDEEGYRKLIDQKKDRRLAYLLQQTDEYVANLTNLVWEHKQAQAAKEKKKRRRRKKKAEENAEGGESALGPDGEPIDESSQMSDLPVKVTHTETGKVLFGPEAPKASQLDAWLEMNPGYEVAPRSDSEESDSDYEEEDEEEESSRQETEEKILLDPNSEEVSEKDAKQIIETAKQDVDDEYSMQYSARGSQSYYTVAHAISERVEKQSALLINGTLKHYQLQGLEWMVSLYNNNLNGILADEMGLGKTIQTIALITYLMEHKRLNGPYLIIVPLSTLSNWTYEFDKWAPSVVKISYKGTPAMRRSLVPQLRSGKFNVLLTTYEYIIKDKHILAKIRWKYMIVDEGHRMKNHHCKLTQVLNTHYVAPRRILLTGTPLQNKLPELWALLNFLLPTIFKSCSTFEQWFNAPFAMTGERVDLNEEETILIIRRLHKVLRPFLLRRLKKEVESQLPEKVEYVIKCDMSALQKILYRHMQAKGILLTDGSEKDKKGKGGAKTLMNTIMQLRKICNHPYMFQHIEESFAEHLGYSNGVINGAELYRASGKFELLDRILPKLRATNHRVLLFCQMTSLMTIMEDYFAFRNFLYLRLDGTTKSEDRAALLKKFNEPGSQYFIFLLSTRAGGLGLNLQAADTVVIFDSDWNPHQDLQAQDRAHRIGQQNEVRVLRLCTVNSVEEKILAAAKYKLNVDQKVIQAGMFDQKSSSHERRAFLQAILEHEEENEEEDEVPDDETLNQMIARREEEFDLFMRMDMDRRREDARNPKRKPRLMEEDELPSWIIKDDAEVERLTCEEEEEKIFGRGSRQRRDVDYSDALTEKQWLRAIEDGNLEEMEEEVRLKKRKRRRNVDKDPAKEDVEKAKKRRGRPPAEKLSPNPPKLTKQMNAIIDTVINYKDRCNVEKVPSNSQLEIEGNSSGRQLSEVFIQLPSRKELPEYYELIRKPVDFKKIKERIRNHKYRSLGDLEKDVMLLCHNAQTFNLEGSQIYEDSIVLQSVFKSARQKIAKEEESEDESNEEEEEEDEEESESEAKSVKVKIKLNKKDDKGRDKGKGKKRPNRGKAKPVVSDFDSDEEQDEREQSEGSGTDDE

T1 sequence (P51532 whole entry): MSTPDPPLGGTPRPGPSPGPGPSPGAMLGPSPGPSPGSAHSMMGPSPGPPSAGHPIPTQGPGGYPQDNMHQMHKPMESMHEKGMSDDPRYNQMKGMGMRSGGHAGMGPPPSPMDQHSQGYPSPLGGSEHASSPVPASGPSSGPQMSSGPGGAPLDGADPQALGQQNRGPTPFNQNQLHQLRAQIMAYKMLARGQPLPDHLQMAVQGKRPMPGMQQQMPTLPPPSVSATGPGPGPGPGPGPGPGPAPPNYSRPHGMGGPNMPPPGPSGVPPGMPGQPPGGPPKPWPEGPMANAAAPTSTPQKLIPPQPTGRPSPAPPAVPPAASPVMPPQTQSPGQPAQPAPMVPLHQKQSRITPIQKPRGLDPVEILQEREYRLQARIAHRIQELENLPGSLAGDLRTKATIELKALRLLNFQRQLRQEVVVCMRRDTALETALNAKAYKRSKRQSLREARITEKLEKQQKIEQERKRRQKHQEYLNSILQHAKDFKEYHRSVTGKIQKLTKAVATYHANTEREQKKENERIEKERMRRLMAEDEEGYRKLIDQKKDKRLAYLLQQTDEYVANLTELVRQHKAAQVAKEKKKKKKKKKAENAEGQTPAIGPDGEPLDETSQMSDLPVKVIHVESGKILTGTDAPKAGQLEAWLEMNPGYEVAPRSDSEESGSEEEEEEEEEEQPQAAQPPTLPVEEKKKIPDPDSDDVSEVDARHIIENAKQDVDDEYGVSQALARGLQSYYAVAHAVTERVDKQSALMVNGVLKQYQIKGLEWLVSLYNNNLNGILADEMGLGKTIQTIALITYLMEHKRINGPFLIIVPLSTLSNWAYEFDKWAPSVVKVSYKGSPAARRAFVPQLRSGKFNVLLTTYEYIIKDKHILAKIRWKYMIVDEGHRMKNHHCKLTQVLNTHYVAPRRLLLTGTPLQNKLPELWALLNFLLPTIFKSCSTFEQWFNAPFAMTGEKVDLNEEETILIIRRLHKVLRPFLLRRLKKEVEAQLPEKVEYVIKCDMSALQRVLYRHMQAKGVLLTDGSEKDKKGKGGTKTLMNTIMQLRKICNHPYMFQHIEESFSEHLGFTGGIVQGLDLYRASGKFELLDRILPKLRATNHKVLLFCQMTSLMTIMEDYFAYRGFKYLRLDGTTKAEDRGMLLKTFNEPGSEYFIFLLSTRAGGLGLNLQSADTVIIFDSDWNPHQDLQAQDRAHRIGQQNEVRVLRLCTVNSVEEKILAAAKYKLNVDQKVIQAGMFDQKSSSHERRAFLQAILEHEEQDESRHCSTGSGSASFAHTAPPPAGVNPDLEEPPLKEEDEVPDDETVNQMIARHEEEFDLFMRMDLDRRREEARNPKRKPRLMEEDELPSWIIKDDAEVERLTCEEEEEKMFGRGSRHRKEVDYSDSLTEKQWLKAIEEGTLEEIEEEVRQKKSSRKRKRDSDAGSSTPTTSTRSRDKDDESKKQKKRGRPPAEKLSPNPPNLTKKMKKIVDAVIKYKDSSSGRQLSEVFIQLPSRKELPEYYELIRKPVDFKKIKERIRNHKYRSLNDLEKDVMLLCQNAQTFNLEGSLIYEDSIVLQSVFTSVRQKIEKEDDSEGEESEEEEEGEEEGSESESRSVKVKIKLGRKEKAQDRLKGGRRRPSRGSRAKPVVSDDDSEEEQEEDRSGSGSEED

`Nc1nnc(-c2ccccc2O)cc1N1CC2CCC(C1)N2c1ccnc(C#CCN2CCC3CNCC32)c1` (stereo not drawn) [Compound 146, 2-[5-[8-[2-[3-(3,3a,4,5,6,6a-hexahydro-2H-pyrrolo[3,4-b]pyrrol-1-yl)prop-1-ynyl]-4-pyridyl]-3,8-diazabicyclo[3.2.1]octan-3-yl]-6-amino-pyridazin-3-yl]phenol]: at BRG1, the DC50 was above 100 nM and the Dmax lay within 30 to 70%. On BRM, the DC50 is above 100 nM and the “BRM IF Degradation Sinf (%)” value is “E (E indicates −30%-−70%)”.
Take `Nc1nnc(-c2ccccc2O)cc1N1CC2CCC(C1)N2c1ccnc(C#CCN2CCOC3CCNCC32)c1` (stereo not drawn) [Compound 147, 2-[5-[8-[2-[3-(2,3,4a,5,6,7,8,8a-octahydropyrido[4,3-b][l,4]oxazin-4-yl)prop-1-ynyl]-4-pyridyl]-3,8-diazabicyclo[3.2.1]octan-3-yl]-6-amino-pyridazin-3-yl]phenol]: at BRG1, the DC50 was above 100 nM and the Dmax is 30 to 70%. For the same compound, on BRM, the DC50 is above 100 nM and the “BRM IF Degradation Sinf (%)” value is on record as “E (E indicates −30%-−70%)”.
Consider `CNC(=O)C12CC(CN1CC#Cc1cc(N3C4CCC3CN(c3cc(-c5ccccc5O)nnc3N)C4)ccn1)C2` [Compound 148, 2-[3-[4-[3-[3-amino-6-(2-hydroxyphenyl)pyridazin-4-yl]-3,8-diazabicyclo[3.2.1]octan-8-yl]-2-pyridyl]prop-2-ynyl]-N-methyl-2-azabicyclo[2.1.1]hexane-1-carboxamide], for which, at BRG1, the DC50 is above 100 nM and the Dmax was 30 to 70%. Further, at BRM, the DC50 was 10 to 100 nM and the “BRM IF Degradation Sinf (%)” value is listed as “E (E indicates −30%-−70%)”.
In the case of `Nc1nnc(-c2ccccc2O)cc1N1CC2CCC(C1)N2c1ccnc(C#CCN2Cc3cn[nH]c3C2)c1` [Compound 149, 2-[6-amino-5-[8-[2-[3-(4,6-dihydro-1H-pyrrolo[3,4-c]pyrazol-5-yl)prop-1-ynyl]-4-pyridyl]-3,8-diazabicyclo[3.2.1]octan-3-yl]pyridazin-3-yl]phenol], at BRG1, the DC50 lay in the range of 10 to 100 nM and the Dmax is 0 to 30%. Also, on BRM, the DC50 was 10 to 100 nM and the “BRM IF Degradation Sinf (%)” value is “E (E indicates −30%-−70%)”.
As to `Nc1nnc(-c2ccccc2O)cc1N1CC2CCC(C1)N2c1ccnc(C#CCN2CC(C3CC3)C2)c1` [Compound 150, 2-[6-amino-5-[8-[2-[3-(3-cyclopropylazetidin-1-yl)prop-1-ynyl]-4-pyridyl]-3,8-diazabicyclo[3.2.1]octan-3-yl]pyridazin-3-yl]phenol], on BRG1, the DC50 is below 10 nM and the Dmax was 30 to 70%. For the same compound, on BRM, the DC50 was below 10 nM and the “BRM IF Degradation Sinf (%)” value is listed as “F (F indicates −71%-−120%)”.
As for `Nc1nnc(-c2ccccc2O)cc1N1CC2CCC(C1)N2c1ccnc(C#CCN2CC3(C2)CC3(F)F)c1` [Compound 151, 2-[6-amino-5-[8-[2-[3-(2,2-difluoro-5-azaspiro[2.3]hexan-5-yl)prop-1-ynyl]-4-pyridyl]-3,8-diazabicyclo[3.2.1]octan-3-yl]pyridazin-3-yl]phenol], at BRG1, the DC50 is below 10 nM and the Dmax lay in the range of 0 to 30%. Besides, on BRM, the DC50 was below 10 nM and the “BRM IF Degradation Sinf (%)” value is “E (E indicates −30%-−70%)”.
Consider `N#CCC1CN(CC#Cc2cc(N3C4CCC3CN(c3cc(-c5ccccc5O)nnc3N)C4)ccn2)C1` [Compound 152, 2-[1-[3-[4-[3-[3-amino-6-(2-hydroxyphenyl)pyridazin-4-yl]-3,8-diazabicyclo[3.2.1]octan-8-yl]-2-pyridyl]prop-2-ynyl]azetidin-3-yl]acetonitrile], for which, at BRG1, the DC50 is below 10 nM and the Dmax lay within 30 to 70%. For the same compound, on BRM, the DC50 is below 10 nM and the “BRM IF Degradation Sinf (%)” value is “E (E indicates −30%-−70%)”.
With `Nc1nnc(-c2ccccc2O)cc1N1CC2CCC(C1)N2c1ccnc(C#CCN2CCCCC23CC3)c1` [Compound 153, 2-[6-amino-5-[8-[2-[3-(4-azaspiro[2.5]octan-4-yl)prop-1-ynyl]-4-pyridyl]-3,8-diazabicyclo[3.2.1]octan-3-yl]pyridazin-3-yl]phenol], at BRG1, the DC50 was below 10 nM and the Dmax was 0 to 30%. For the same compound, on BRM, the DC50 was below 10 nM and the “BRM IF Degradation Sinf (%)” value is given as “E (E indicates −30%-−70%)”.
With `Nc1nnc(-c2ccccc2O)cc1N1CC2CCC(C1)N2c1ccnc(C#CCN2CC(O)(C3CC3)C2)c1` [Compound 154, 1-[3-[4-[3-[3-amino-6-(2-hydroxyphenyl)pyridazin-4-yl]-3,8-diazabicyclo[3.2.1]octan-8-yl]-2-pyridyl]prop-2-ynyl]-3-cyclopropyl-azetidin-3-ol], at BRG1, the DC50 was below 10 nM and the Dmax lay in the range of 30 to 70%. For the same compound, on BRM, the DC50 is below 10 nM and the “BRM IF Degradation Sinf (%)” value is given as “F (F indicates −71%-−120%)”.
For `Nc1nnc(-c2ccccc2O)cc1N1CC2CCC(C1)N2c1ccnc(C#CCN2CC3(CCCC3)C2)c1` [Compound 155, 2-[6-amino-5-[8-[2-[3-(2-azaspiro[3.4]octan-2-yl)prop-1-ynyl]-4-pyridyl]-3,8-diazabicyclo[3.2.1]octan-3-yl]pyridazin-3-yl]phenol], on BRG1, the DC50 was below 10 nM and the Dmax lay in the range of 30 to 70%. For the same compound, on BRM, the DC50 is below 10 nM and the “BRM IF Degradation Sinf (%)” value is “E (E indicates −30%-−70%)”.
For `CN1CC2(CCN(CC#Cc3cc(N4C5CCC4CN(c4cc(-c6ccccc6O)nnc4N)C5)ccn3)C2)C1` [Compound 156, 2-[6-amino-5-[8-[2-[3-(2-methyl-2,6-diazaspiro[3.4]octan-6-yl)prop-1-ynyl]-4-pyridyl]-3,8-diazabicyclo[3.2.1]octan-3-yl]pyridazin-3-yl]phenol], at BRG1, the DC50 was above 100 nM and the Dmax was 30 to 70%. In addition, on BRM, the DC50 was above 100 nM and the “BRM IF Degradation Sinf (%)” value is listed as “E (E indicates −30%-−70%)”.
With `Nc1nnc(-c2ccccc2O)cc1N1CC2CCC(C1)N2c1ccnc(C#CCN2CC(C3CCOC3)C2)c1` (stereo not drawn) [Compound 157, 2-[6-amino-5-[8-[2-[3-(3-tetrahydrofuran-3-ylazetidin-1-yl)prop-1-ynyl]-4-pyridyl]-3,8-diazabicyclo[3.2.1]octan-3-yl]pyridazin-3-yl]phenol], on BRG1, the DC50 was 10 to 100 nM and the Dmax was 30 to 70%. On BRM, the DC50 fell in the range of 10 to 100 nM and the “BRM IF Degradation Sinf (%)” value is “E (E indicates −30%-−70%)”.
For `Nc1nnc(-c2ccccc2O)cc1N1CC2CCC(C1)N2c1ccnc(C#CCN2CC(CC(F)F)C2)c1` [Compound 158, 2-[6-amino-5-[8-[2-[3-[3-(2,2-difluoroethyl)azetidin-1-yl]prop-1-ynyl]-4-pyridyl]-3,8-diazabicyclo[3.2.1]octan-3-yl]pyridazin-3-yl]phenol], on BRG1, the DC50 is below 10 nM and the Dmax was in the range of 30 to 70%. Further, at BRM, the DC50 is below 10 nM and the “BRM IF Degradation Sinf (%)” value is on record as “F (F indicates −71%-−120%)”.
As for `Nc1nnc(-c2ccccc2O)cc1N1CC2CCC(C1)N2c1ccnc(C#CCN2CCC23CCOCC3)c1` [Compound 159, 2-[6-amino-5-[8-[2-[3-(7-oxa-1-azaspiro[3.5]nonan-1-yl)prop-1-ynyl]-4-pyridyl]-3,8-diazabicyclo[3.2.1]octan-3-yl]pyridazin-3-yl]phenol], at BRG1, the DC50 was below 10 nM and the Dmax fell in the range of 30 to 70%. Moreover, on BRM, the DC50 is below 10 nM and the “BRM IF Degradation Sinf (%)” value was “E (E indicates −30%-−70%)”.
As for `Nc1nnc(-c2ccccc2O)cc1N1CC2CCC(C1)N2c1ccnc(C#CCN2CC3(COCCO3)C2)c1` [Compound 160, 2-[6-amino-5-[8-[2-[3-(5,8-dioxa-2-azaspiro[3.5]nonan-2-yl)prop-1-ynyl]-4-pyridyl]-3,8-diazabicyclo[3.2.1]octan-3-yl]pyridazin-3-yl]phenol], at BRG1, the DC50 lay within 10 to 100 nM and the Dmax is 0 to 30%. Besides, at BRM, the DC50 is 10 to 100 nM and the “BRM IF Degradation Sinf (%)” value is listed as “E (E indicates −30%-−70%)”.
As for `Nc1nnc(-c2ccccc2O)cc1N1CC2CCC(C1)N2c1ccnc(C#CCN2C[C@H]3OCC[C@H]32)c1` [Compound 161, 2-[6-amino-5-[8-[2-[3-[(1R,5R)-2-oxa-6-azabicyclo[3.2.0]heptan-6-yl]prop-1-ynyl]-4-pyridyl]-3,8-diazabicyclo[3.2.1]octan-3-yl]pyridazin-3-yl]phenol], on BRG1, the DC50 was in the range of 10 to 100 nM and the Dmax is 30 to 70%. On BRM, the DC50 is below 10 nM and the “BRM IF Degradation Sinf (%)” value is “E (E indicates −30%-−70%)”.
In the case of `Nc1nnc(-c2ccccc2O)cc1N1CC2CCC(C1)N2c1ccnc(C#CCN2CC3CCCC32)c1` (stereo not drawn) [Compound 162, 2-(5-(8-(2-(3-(6-azabicyclo[3.2.0]heptan-6-yl)prop-1-yn-1-yl)pyridin-4-yl)-3,8-diazabicyclo[3.2.1]octan-3-yl)-6-aminopyridazin-3-yl)phenol], on BRG1, the DC50 is below 10 nM and the Dmax lay within 30 to 70%. In addition, on BRM, the DC50 was below 10 nM and the “BRM IF Degradation Sinf (%)” value was “F (F indicates −71%-−120%)”.
Regarding `CNC(=O)[C@@H]1CCCN1CC#Cc1cc(N2C3CCC2CN(c2cc(-c4ccccc4O)nnc2N)C3)ccn1` [Compound 163, (2S)-1-[3-[4-[3-[3-amino-6-(2-hydroxyphenyl)pyridazin-4-yl]-3,8-diazabicyclo[3.2.1]octan-8-yl]-2-pyridyl]prop-2-ynyl]-N-methyl-pyrrolidine-2-carboxamide], at BRG1, the DC50 is above 100 nM and the Dmax lay within 30 to 70%. Moreover, on BRM, the DC50 fell in the range of 10 to 100 nM and the “BRM IF Degradation Sinf (%)” value was “E (E indicates −30%-−70%)”.
